Results published in article PMC6864091, “A LONELY GUY protein of Bordetella pertussis with unique features is related to oxidative stress” (Scientific Reports, 2019).

B1: BP1253 (enzyme, Bordetella pertussis, UniProt Q7VYQ7 1-209, looked up)
chain: MSEIKTAAEKLADIGPAVSMFGSARISRESPYYETCAAISAALAGAGFAIIAGGGPGIMEAANKGAFEAGGTSVGLNISLPHEAHNNEYQTISLSFEYFYSRKATFFMHSMAYVAMPGGFGTLDELFEALTLIQTGKVPPAPIVLVGSEFWHGLVDWLGEQLLANGMIAAHDLNLFIIEDDPAKVVRKVVEFHDKQGRTDSQYAPSLPA
notes: also called BpLOG; BP1253-His

Legend:
[1] = target: T1, BP1253 (BpLOG) (Bordetella pertussis, UniProt Q7VYQ7); assay: SPR (Biacore T200, steady state, amine-coupled BP1253-His); cleavage also shown by TLC; type: binding
T1 construct: recombinant BP1253 with C-terminal 6x His tag (BP1253-His)

[2] = target: T1, BP1253 (BpLOG); assay: SPR (data not shown); type: binding
[3] = target: the molecule itself; assay: SEC; analytical SEC, BEH200 column 4.6 x 300 mm, 10 mM NaH2PO4, 400 mM (NH4)2SO4 pH 6.0; samples of 0.62 mg/ml and 3 mg/ml; mass from a calibration curve of standard proteins

Molecule	Kd [1] [µM]	Kd [2] [µM]	further results
Nc1ncnc2c1ncn2[C@@H]1O[C@H](COP(=O)(O)O)[C@@H](O)[C@H]1O [AMP]	5.7		
Nc1nc2c(ncn2[C@@H]2O[C@H](COP(=O)(O)O)[C@@H](O)[C@H]2O)c(=O)[nH]1 [GMP]	38.6		
Cc1cn([C@H]2C[C@H](O)[C@@H](COP(=O)(O)O)O2)c(=O)[nH]c1=O [TMP]		2400	
O=c1ccn([C@@H]2O[C@H](COP(=O)(O)O)[C@@H](O)[C@H]2O)c(=O)[nH]1 [UMP]		6100	
B1			stoichiometry N [3]: 2
